Our source for the IC50 and inhibition values is patent publication US8691855B2, “Compounds, isomer thereof, or pharmaceutically acceptable salts thereof as vanilloid receptor antagonist and pharmaceutical compositions containing the same” (Amorepacific Corporation, priority 2008, dated 2014).

For the test, the target named is T1, vanilloid receptor (Rattus norvegicus, UniProt O35433).
T1 construct: DRG nerve cells from the primary culture of 2 days were equilibrated; endogenous in cells; host or cells: primary culture of dorsal root ganglion neurons from neonatal SD rats
The experiment in a line: 45Ca influx test (antagonist calcium uptake test) in rat DRG neurons stimulated with capsaicin. The test is classed as cell-based. The settings on record: neonatal SD rat DRG neurons, capsaicin 0.5 μM; for IC50: 45Ca. As to the method:
1) Separation of spinal dorsal root ganglia (DRG) in newborn rats and primary culture thereof
Neonatal (2-3 clay old or younger than 2-3 day old) SD rats were put in ice for 5 minutes to anesthetize and disinfected with 70% ethanol. DRG of all part of spinal cord were dissected (Wood et al., 1988, J. Neurosci. 8, pp 3208-3220) and collected in DME/F12 medium to which 1.2 g/l sodium bicarbonate and 50 mg/l gentamycin were added. The DRG were incubated sequentially at 37° C. for 30 mins in 200 U/ml collagenase and 2.5 mg/ml trypsin, separately. The ganglia were washed twice with DME/F12 medium supplemented with 10% horse serum, triturated through a fire-polished Pasteur pipette, filtered through Nitex 80 membrane to obtain single cell suspension and the suspension was washed once more. This was subjected to centrifugation, then resuspended in cell culture medium at certain level of cell density. As the cell culture medium, DME/F12 medium supplemented with 10% horse serum was diluted with identical medium conditioned by C6 glioma cells 2 clays on a confluent monolayer (1:1), and NGF (Nerve Growth Factor) was added to adjust 200 ng/ml as final concentration. After the cells were grown 2 days in medium where cytosine arabinoside (Ara-C, 100 μM) was added to kill dividing nonneuronal cells, medium was changed to one without Ara-C. The resuspended cells were plated at a density of 1500-2000 neurons/well onto Terasaki plates previously coated with 10 μg/ml poly-D-ornithine.
2) ^45Ca Influx Experiments
DRG nerve cells from the primary culture of 2 days were equilibrated by washing 4 times with HEPES (10 mM, pH 7.4)-buffered Ca^2+, Mg^2+-free HBSS (H-HBSS). The solution in each well was removed from the individual well. Medium containing the test compound plus capsaicin (final concentration 0.5 μM) and ^45Ca (final concentration 10 μCi/ml) in H-HBSS was added to each well and incubated at room temperature for 10 nuns. Terasaki plates were washed five times with H-HBSS and dried at room temperature. To each well, 0.3% SDS (10 μl) was added to elute ^45Ca. After the addition of scintillation cocktail of into each well, the amount of ^45Ca influx into neuron was measured by counting radioactivity. Antagonistic activities of test compounds against vanilloid receptor were calculated as percent of the inhibition of maximal response of capsaicin at a concentration of 0.5 μM.

In general, IC50 refers to the concentration that inhibits the measured activity by half. By inhibition is commonly meant the percentage by which the read-out fell short of the control.

T1 sequence (O35433 whole entry): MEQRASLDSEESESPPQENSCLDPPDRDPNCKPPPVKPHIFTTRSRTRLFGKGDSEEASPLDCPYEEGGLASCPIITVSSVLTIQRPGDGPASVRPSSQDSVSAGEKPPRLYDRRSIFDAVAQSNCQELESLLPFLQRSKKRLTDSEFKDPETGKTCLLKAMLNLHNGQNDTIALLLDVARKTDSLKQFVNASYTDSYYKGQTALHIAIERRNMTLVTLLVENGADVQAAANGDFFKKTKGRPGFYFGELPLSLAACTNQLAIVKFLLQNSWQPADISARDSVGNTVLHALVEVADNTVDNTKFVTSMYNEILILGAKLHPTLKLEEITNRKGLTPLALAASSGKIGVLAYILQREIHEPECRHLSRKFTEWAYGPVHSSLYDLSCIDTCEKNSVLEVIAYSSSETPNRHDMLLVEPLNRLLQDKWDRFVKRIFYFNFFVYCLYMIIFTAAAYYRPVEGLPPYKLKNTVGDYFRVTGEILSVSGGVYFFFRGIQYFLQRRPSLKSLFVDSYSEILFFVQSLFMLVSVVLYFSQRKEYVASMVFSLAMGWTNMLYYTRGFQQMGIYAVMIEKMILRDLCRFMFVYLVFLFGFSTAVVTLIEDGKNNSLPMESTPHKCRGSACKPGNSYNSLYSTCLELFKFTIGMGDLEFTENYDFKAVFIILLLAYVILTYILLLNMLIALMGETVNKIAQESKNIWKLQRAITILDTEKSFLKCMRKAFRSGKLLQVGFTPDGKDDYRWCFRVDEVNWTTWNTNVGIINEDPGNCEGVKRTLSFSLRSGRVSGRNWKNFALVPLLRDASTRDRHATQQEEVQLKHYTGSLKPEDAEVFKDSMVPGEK

As to `CCCc1ccc(C(F)(F)F)cc1Oc1nc(C(=O)N[C@H](C)c2cc(F)c(NS(C)(=O)=O)c(F)c2)co1` [Example 41, 2-(2-Propyl-5-trifluoromethyl-phenoxy)-oxazole-4-carboxylic acid [1-(3,5-difluoro-4-methanesulfonylamino-phenyl)-ethyl]-amide], the IC50 turned out to be 190 nM. Still for that read-out and setting: as for `C[C@@H](NC(=O)c1coc(NCC2CCCCC2)n1)c1cc(F)c(NS(C)(=O)=O)c(F)c1` [Example 13, 2-(Cyclohexylmethyl-amino)-oxazole-4-carboxylic acid [1-(3,5-difluoro-4-methanesulfonylamino-phenyl)-ethyl]-amide], the figure is 1400 nM. On to `C[C@@H](NC(=O)c1ccc(-c2cccc(C(F)(F)F)c2)s1)c1cc(F)c(NS(C)(=O)=O)c(F)c1` (stereo in doubt) [Example 73, 5-(3-Trifluoromethyl-phenyl)-thiophene-2-carboxylic acid [1-(3,5-difluoro-4-methanesulfonylamino-phenyl)-ethyl]-amide], for which the IC50 is 10500 nM.

Take `C[C@@H](NC(=O)c1ccc(-c2cccc(C(F)(F)F)c2)o1)c1ccc(NS(C)(=O)=O)c(F)c1` [Example 111, 5-(3-Trifluoromethyl-phenyl)-furan-2-carboxylic acid [1-(3-fluoro-4-methanesulfonylamino-phenyl)-ethyl]-amide]: the IC50 is 240 nM. Still for that read-out and setting: the figure for `C[C@@H](NC(=O)c1coc(Oc2cccc(Br)c2)n1)c1cc(F)c(NS(C)(=O)=O)c(F)c1` [Example 15, 2-(3-Bromo-phenoxy)-oxazole-4-carboxylic acid [1-(3,5-difluoro-4-methanesulfonylamino-phenyl)-ethyl]-amide] is 600 nM.

As for `CC(C)c1cc(Oc2nc(C(=O)N[C@H](C)c3cc(F)c(NS(C)(=O)=O)c(F)c3)co2)cc(C(F)(F)F)c1` [Example 40, 2-(3-Isopropyl-5-trifluoromethyl-phenoxy)-oxazole-4-carboxylic acid [1-(3,5-difluoro-4-methanesulfonylamino-phenyl)-ethyl]-amide], the IC50 stood at 1100 nM. Still for that read-out and setting: the figure for `C[C@@H](NC(=O)c1coc(-c2ccccc2Cl)n1)c1cc(F)c(NS(C)(=O)=O)c(F)c1` (stereo in doubt) [Example 84, 2-(2-Chloro-phenyl)-oxazole-4-carboxylic acid [1-(3,5-difluoro-4-methanesulfonylamino-phenyl)-ethyl]-amide] is 7400 nM; for `Cc1cccc(-c2nc(C(=O)N[C@H](C)c3cc(F)c(NS(C)(=O)=O)c(F)c3)co2)c1C` [Example 90, 2-(2,3-Dimethyl-phenyl)-oxazole-4-carboxylic acid [1-(3,5-difluoro-4-methanesulfonylamino-phenyl)-ethyl]-amide] it is 910 nM; for `CS(=O)(=O)Nc1c(F)cc(CNC(=O)c2ccc(-c3ccc(C(F)(F)F)cc3)s2)cc1F` [Example 60, 5-(4-Trifluoromethyl-phenyl)-thiophene-2-carboxylic acid 3,5-difluoro-4-methanesulfonylamino-benzylamide] it is 6100 nM. For the molecule `C[C@@H](NC(=O)c1ccc(-c2cc(C3CC3)cc(C(F)(F)F)c2)o1)c1cc(F)c(NS(C)(=O)=O)c(F)c1` [Example 95, 5-(3-Cyclopropyl-5-trifluoromethyl-phenyl)-furan-2-carboxylic acid [1-(3,5-difluoro-4-methanesulfonylamino-phenyl)-ethyl]-amide], the inhibition at 1 µM (DRG neuron, @1 μM, read-out: Antagonist Calcium Uptake Test, percent inhibition of capsaicin response) is 66%. As to `CC(C)(C)c1ccc(-c2ccc(C(=O)NCc3cc(F)c(NS(C)(=O)=O)c(F)c3)s2)cc1` [Example 63, 5-(4-tert-Butyl-phenyl)-thiophene-2-carboxylic acid 3,5-difluoro-4-methanesulfonylamino-benzylamide], the IC50 was > 10000 nM.

Turning to `CC(C)c1cccc(-c2ccc(C(=O)N[C@H](C)c3cc(F)c(NS(C)(=O)=O)c(F)c3)s2)c1` [Example 72, 5-(3-Isopropyl-phenyl)-thiophene-2-carboxylic acid [1-(3,5-difluoro-4-methanesulfonylamino-phenyl)-ethyl]-amide], the IC50 amounted to 1400 nM. As for `C[C@@H](NC(=O)c1coc(-c2ccc(Cl)c(Cl)c2)n1)c1cc(F)c(NS(C)(=O)=O)c(F)c1` [Example 86, 2-(3,4-Dichloro-phenyl)-oxazole-4-carboxylic acid [1-(3,5-difluoro-4-methanesulfonylamino-phenyl)-ethyl]-amide], the half-inhibitory concentration (IC50) came to 1000 nM. `CS(=O)(=O)Nc1c(F)cc(CNC(=O)c2ccc(-c3cccc(C(F)(F)F)c3)o2)cc1F` [Example 110, 5-(3-Trifluoromethyl-phenyl)-furan-2-carboxylic acid 3,5-difluoro-4-methanesulfonylamino-benzylamide]: the IC50 was found to be 620 nM. In the case of `Cc1cc(C)cc(-c2nc(C(=O)N[C@H](C)c3cc(F)c(NS(C)(=O)=O)c(F)c3)co2)c1` [Example 99, 2-(3,5-Dimethyl-phenyl)-oxazole-4-carboxylic acid [1-(3,5-difluoro-4-methanesulfonylamino-phenyl)-ethyl]-amide], the IC50 turned out to be 2000 nM. The same measure, in the same setting: the figure for `C[C@@H](NC(=O)c1coc(Oc2cccc3c2OC2(CCCC2)O3)n1)c1cc(F)c(NS(C)(=O)=O)c(F)c1` [Example 49, 2-(2,3-Dihydroxy-phenoxy)-oxazole-4-carboxylic acid [1-(3,5-difluoro-4-methanesulfonylamino-phenyl)-ethyl]-amide, cyclopentanone ketal] is 600 nM; for `C[C@@H](NC(=O)c1coc(Oc2ccc(C(C)(C)C)cc2)n1)c1cc(F)c(NS(C)(=O)=O)c(F)c1` [Example 7, 2-(4-tert-Butyl-phenoxy)-oxazole-4-carboxylic acid [1-(3,5-difluoro-4-methanesulfonylamino-phenyl)-ethyl]-amide] it is 4300 nM. On the same count and under the same terms, the figure for `C[C@@H](NC(=O)c1coc(-c2cc(Br)cc(C3CC3)c2)n1)c1cc(F)c(NS(C)(=O)=O)c(F)c1` [Example 115, 2-(3-Bromo-5-cyclopropyl-phenyl)-oxazole-4-carboxylic acid [1-(3,5-difluoro-4-methanesulfonylamino-phenyl)-ethyl]-amide] is 770 nM; for `C[C@@H](NC(=O)c1csc(Cc2ccc(C(C)(C)C)cc2)n1)c1cc(F)c(NS(C)(=O)=O)c(F)c1` [Example 10, (R)—N-[1-(3,5-Difluoro-4-methanesulfonylamino-phenyl)-ethyl]-2-(4-t-butylbenzyl)-thiazole-4-amide] it is 6400 nM; for `C[C@@H](NC(=O)c1coc(Oc2cccc3c2OC(C)(C)C3)n1)c1cc(F)c(NS(C)(=O)=O)c(F)c1` (stereo in doubt) [Example 34, 2-(2,2-Dimethyl-2,3-dihydro-benzofuran-7-yloxy)-oxazole-4-carboxylic acid [1-(3,5-difluoro-4-methanesulfonylamino-phenyl)-ethyl]-amide] it is 400 nM. Consider `C=Cc1cc(CNC(=O)c2ccc(-c3cccc(C(F)(F)F)c3)o2)cc(F)c1NS(C)(=O)=O` [Example 105, 5-(3-Trifluoromethyl-phenyl)-furan-2-carboxylic acid 3-fluoro-4-methanesulfonylamino-5-vinyl-benzylamide], for which, where the note is “DRG neuron, @0.3 μM, read-out: Antagonist Calcium Uptake Test, percent inhibition of capsaicin response”, the inhibition at 0.3 µM is 96%. On to `COc1ccc(-c2nc(C(=O)N[C@H](C)c3cc(F)c(NS(C)(=O)=O)c(F)c3)co2)cc1C(F)(F)F` (stereo in doubt) [Example 96, 2-(4-Methoxy-3-trifluoromethyl-phenyl)-oxazole-4-carboxylic acid [1-(3,5-difluoro-4-methanesulfonylamino-phenyl)-ethyl]-amide], for which the IC50 stood at 1300 nM.

On to `CS(=O)(=O)Nc1c(F)cc(CNC(=O)c2csc(Oc3ccc(C(F)(F)F)cc3)n2)cc1F` [Example 14, 2-(4-Trifluoromethyl-phenoxy)-thiazole-4-carboxylic acid 3,5-difluoro-4-methanesulfonylamino-benzylamide], for which the 50% inhibitory concentration (IC50) turned out to be 1500 nM. Still for that read-out and setting: the figure for `CC1CCCc2c(Oc3nc(C(=O)N[C@H](C)c4cc(F)c(NS(C)(=O)=O)c(F)c4)co3)cccc21` (stereo partly drawn) [Example 39, 2-(5-Methyl-5,6,7,8-tetrahydro-naphthalen-1-yloxy)-oxazole-4-carboxylic acid [1-(3,5-difluoro-4-methanesulfonylamino-phenyl)-ethyl]-amide] is 290 nM.
